Assay results reported in patent US8470534B2, “Methods of predicting resistance or sensitivity to therapies for cancer” (priority 2006, dated 2013).

System: MCF7, T47D, and Zr-75-1 cells
Assay: BrdU incorporation under hormone deprivation / antiestrogen (CDT, CDT/Tam, CDT/ICI)
Type: cell-based, human
Method: To understand the impact of RB deficiency on the response to hormone deprivation therapy, cells are cultured in CDT, CDT/Tam, or in the presence of pure antiestrogen, ICI182780 (CDT/ICI). Following treatment with these modalities, cells are labeled with BrdU to determine the influence of each agent on cell-cycle progression and the corresponding influence of RB knockdown on this response (FIG. 4B). These experiments are recapitulated in the polyclonal populations of T47D and Zr-75-1 donor and siRb88 cells (FIG. 4C). […] To elucidate the long-term growth effects of these therapies, cell proliferation assays are performed over 9 days. RB-proficient and -deficient MCF7 cells are seeded at equal densities and cultured in CDT/Tam (FIG. 4D). […] Similar results are evident in the same experiments with both T47D and Zr-75-1 RB-proficient and -deficient polyclonal pools (FIG. 4E).
RB target gene upregulation is a prognostic indicator in human breast cancers. RB performs a myriad of functions, the most well understood being repression of the E2F family of transcription factors. To determine the specific influence of the E2F axis on bypassing therapy, an activator E2F is overexpressed in wild-type MCF7 cells. Specifically, cells are infected either with an adenovirus encoding E2F3 (ad-E2F3) or a control virus (Ad-LacZ) and are harvested 3 days after infection for immunoblot analysis of levels of known RB-E2F targets (FIG. 5A). […] As expected, no changes are detected in RB levels, and CDK4 serves as a loading control. In order to assess the response to therapeutic intervention, 3 days after infection Ad-E2F3- or AdLacZ-infected MCF7 cells are separated into 2 major treatment groups: hormone therapy and DNA damage therapy. The estrogen ablation group is then cultured in the absence of estrogen and in the presence of Tam and ICI as described above. Alternatively, the cells in the DNA damage therapy group are treated with 16 μM CDDP for 18 hours prior to washing or treatment with 5 Gy IR. Cells from both therapy groups are BrdU labeled, and the replicative fraction of treated cells is determined with respect to untreated control cells (FIG. 5B).
To study the effect of estrogen depletion, cells are cultured for 72 hours in phenol red-free DMEM supplemented with 10% CDT serum with addition of 10^−9 M 4-HydroxyTam or 10^−6 M ICI where indicated. Cell growth assays are performed by trypsinizing cells and counting by trypan blue exclusion every 3 days.
Cells treated with IR are exposed to ^137Cs (dose rate: 0.67 Gy/min) at room temperature in tissue culture media. Culture with clinical grade CDDP for 18 hours is performed for all CDDP treatments. For all proliferation studies, cells are labeled with BrdU for 10 hours or 5 hours for LXSN/LXSN-p53dd infected cells, and BrdU immunofluorescence is performed as previously described. All BrdU results are expressed as a percentage of untreated control cells set to 100%, unless otherwise noted.

## CC/C(=C(\c1ccccc1)c1ccc(OCCN(C)C)cc1)c1ccccc1 [Tam, tamoxifen]
Ad-E2F3-infected versus control infected MCF7 cells, absence of estrogen plus agent
  cell-cycle arrest (replicative fraction, BrdU): significantly reduced levels of cell-cycle arrest
RB-depleted cells (MCF7 siRb28, T47D and Zr-75-1 siRb88), CDT serum plus agent, 3 days
  cell-cycle inhibition by the agent (BrdU labeling): significantly reduced
Cells harboring functional RB (MCF7, T47D, Zr-75-1 donor), CDT serum plus agent, 3 days, 10^−9 M 4-HydroxyTam or 10^−6 M ICI
  cell-cycle progression (BrdU labeling): elicit cell-cycle inhibition
